Test results reported in patent US20210284621A1 (priority 2018, published 2021).
Read-outs that look alike come from different tables or passages of the source.

Legend:
CB2 receptor [1] = molecular target: T1, CB2 receptor (Homo sapiens, UniProt P34972); assay: CB2 competitive radioligand binding assay ([3H] WIN-55,212-2); parameters: expressed in transfected cells; host or cells: CHO-K1 cells
Procedure: (§1) J Med Chem. 41(26): 5177-5187 (1998); and Munro S., et al. Molecular characterization of a peripheral receptor for cannabinoids. Nature 365:61-65 (1993).
CB2 Radioligand Binding Assay: A compound of the invention (0.05 μM in 1% DMSO) was incubated with CHO-K1 cells expressing human recombinant CB2 receptor in buffer (20 mM HEPES, pH 7.0, 0.5% BSA) for 90 minutes at 37° C. in the presence of 2.4 nM [H^3] WIN-55,212-2 (CB2 radioligand). % Inhibition was determined as a function of radioligand binding to the […].

CB1 receptor [2] = molecular target: T2, CB1 receptor (Homo sapiens, UniProt P21554); assay: cell-based; parameters: host or cells: PathHunter cell lines
Procedure: (§2) The PathHunter® β-Arrestin assay monitors the activation of a GPCR in a homogenous, non-imaging assay format using a technology developed by DiscoverX called Enzyme Fragment Complementation (EFC) with β-galactosidase (3-Gal) as the functional reporter. […] EA is fused to β-Arrestin and PK is fused to the GPCR of interest.
(§3) PathHunter cell lines were expanded from freezer stocks according to standard procedures. Cells were seeded in a total volume of 20 μL into white walled, 384-well microplates and incubated at 37° C. for the appropriate time prior to testing. For agonist activity determination, cells were incubated with sample to induce response. Intermediate dilution of sample stocks was performed to generate 5× sample in assay buffer. 5 μL of 5× sample was added to cells and incubated at 37° C. or room temperature for 90 to 180 minutes. Vehicle concentration was 1%. Assay signal was generated through a single addition of 12.5 or 15 μL (50% v/v) of PathHunter Detection reagent cocktail, followed by a one hour incubation at room temperature. Microplates were read following signal generation with a PerkinElmer Envision™ instrument for chemiluminescent signal detection. Compound activity was analyzed using CBIS data analysis suite (ChemInnovation, CA). For agonist assays, percentage activity was calculated using the following formula: % Activity=100%×(mean RLU of test sample− mean RLU of vehicle control)/(mean MAX control ligand− mean RLU of vehicle control).

CB1 receptor [3] = molecular target: T2, CB1 receptor; assay: CB1 competitive radioligand binding assay ([3H] SR141716A); parameters: expressed in transfected cells; host or cells: Chem-1 cells
Procedure: as §1
CB1 Radioligand Binding Assay: A compound of the invention (0.5 μM in 1% DMSO) was incubated with Chem-1 cells expressing human recombinant CB1 receptor in buffer (50 mM HEPES, pH 7.4, 5 mM MgCl2, 1 mM CaCl2, 0.2% BSA) for 90 minutes at 37° C. in the presence of 2.0 nM [H^3] SR141716A (CB1 radioligand). % Inhibition was determined as a function of radioligand binding to the CB1 receptor.

CB2 receptor [4] = molecular target: T1, CB2 receptor; assay: cell-based; parameters: host or cells: cAMP Hunter cell lines; conditions: PathHunter agonist mode; read-out: CB2 Activity (β-Arrestin)
Procedure: as §2, §3

CB2 receptor [5] = molecular target: T1, CB2 receptor; assay: cAMP Assay #2: Hit Hunter cAMP assay, Gi-coupled agonist activity, CB2; assay type: cell-based; parameters: host or cells: cAMP Hunter cell lines; conditions: for CB2 fold selectivity: CB1 EC50 / CB2 EC50
Procedure: (§4) Compounds of the invention were assayed in the Hit Hunter® cAMP assay to determine Gi-coupled agonist activity on the CB1 and CB2 receptors, the results of which are provided in Table 5.
(§5) The Hit Hunter® cAMP assay monitors the activation of a GPCR via Gi and […] secondary messenger signaling in a homogenous, non-imaging assay format using a technology developed by DiscoverX called Enzyme Fragment Complementation (EFC) with β-galactosidase (β-Gal) as the functional reporter. […] ED is fused to cAMP and in the assay competes with cAMP generated by cells for binding to a cAMP-specific antibody. Active β-Gal is formed by complementation of exogenous EA to any unbound ED cAMP. Active enzymes can then convert a chemiluminescent substrate, generating an output signal detectable on a standard microplate reader.
(§6) cAMP Hunter cell lines were expanded from freezer stocks according to standard procedures. Cells were seeded in a total volume of 20 μL into white walled, 384-well microplates and incubated at 37° C. for the appropriate time prior to testing. cAMP modulation was determined using the DiscoverX Hit Hunter cAMP XS+ assay. For Gi agonist activity determination, cells were incubated with sample in the presence of EC80 forskolin to induce response (20 μM and 25 μM in the CB1 and CB2 assays, respectively). Media was aspirated from cells and replaced with 15 μL 2:1 HBSS/10 mM HEPES:cAMP XS+Ab reagent.
(§7) Intermediate dilution of sample stocks was performed to generate 4× sample in assay buffer. 5 μL of 4× compound was added to cells and incubated at 37° C. or room temperature for 30 or 60 minutes. Final vehicle concentration was 1%. Assay signal was generated through incubation with 20 μL cAMP XS+ED/CL lysis cocktail for one hour at room temperature. Microplates were read following signal generation with a PerkinElmer Envision™ instrument for chemiluminescent signal detection. Compound activity was analyzed using CBIS data analysis suite (Chem Innovation, CA). For agonist assays, percentage activity was calculated using the following formula: % Activity=100%×(1−(mean RLU of test sample−mean RLU of Max control ligand)/(mean RLU of vehicle control−mean RLU of Max control ligand). Control ligand was the non-selective CB1/CB2 agonist CP55,940.

CB1 receptor [6] = molecular target: T2, CB1 receptor; assay: cAMP Assay #2: Hit Hunter cAMP assay, Gi-coupled agonist activity, CB1; assay type: cell-based; parameters: host or cells: PathHunter cell lines
Procedure: as §4, §5, §6, §7

[7] = PathHunter agonist mode, read-out: CB1 Activity (β-Arrestin)
[8] = Hit Hunter cAMP, 25 μM forskolin, control ligand CP55,940, read-out: CB2, EC50
[9] = Hit Hunter cAMP, 20 μM forskolin, control ligand CP55,940, read-out: CB1, EC50

T2 sequence (P21554 whole entry, the tested form may be a part): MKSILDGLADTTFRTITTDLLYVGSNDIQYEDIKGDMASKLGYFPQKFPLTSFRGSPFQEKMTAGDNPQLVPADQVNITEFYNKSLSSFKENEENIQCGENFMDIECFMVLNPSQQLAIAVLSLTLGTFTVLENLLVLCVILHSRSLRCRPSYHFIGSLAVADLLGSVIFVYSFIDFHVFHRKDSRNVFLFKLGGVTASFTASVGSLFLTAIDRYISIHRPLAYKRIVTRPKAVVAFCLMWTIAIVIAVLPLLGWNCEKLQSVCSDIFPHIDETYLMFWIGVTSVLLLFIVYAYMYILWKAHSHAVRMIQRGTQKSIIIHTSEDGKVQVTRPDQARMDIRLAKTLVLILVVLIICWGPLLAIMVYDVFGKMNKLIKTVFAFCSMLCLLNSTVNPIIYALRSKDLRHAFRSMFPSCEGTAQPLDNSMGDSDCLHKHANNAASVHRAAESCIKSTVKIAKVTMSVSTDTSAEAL
T1 sequence (P34972 whole entry): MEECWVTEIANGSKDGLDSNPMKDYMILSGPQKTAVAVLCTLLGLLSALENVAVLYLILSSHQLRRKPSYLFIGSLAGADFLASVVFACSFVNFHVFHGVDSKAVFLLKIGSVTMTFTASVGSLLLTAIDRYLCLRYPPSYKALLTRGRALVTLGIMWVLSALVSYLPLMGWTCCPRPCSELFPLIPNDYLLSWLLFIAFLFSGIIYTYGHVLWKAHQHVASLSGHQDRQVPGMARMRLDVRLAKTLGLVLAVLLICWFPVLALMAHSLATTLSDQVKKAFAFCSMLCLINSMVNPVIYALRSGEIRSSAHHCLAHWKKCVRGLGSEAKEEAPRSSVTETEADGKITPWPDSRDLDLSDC

Row | SMILES | inhibition at 0.05 µM (CB2 receptor [1]; 0.05 μM compound, 2.4 nM [3H] WIN-55,212-2, 90 min 37° C.) [%] | Fold Selectivity (CB1/CB2) (CB2 receptor [1]; Table 2, ratio of Ki CB1/CB2) | Ki (CB2 receptor [1]; Table 2, read-out: CB2 Binding Ki) [nM] | EC50 (CB1 receptor [2]; [7]) [nM] | inhibition at 0.5 µM (CB1 receptor [3]; 0.5 μM compound, 2.0 nM [3H] SR141716A, 90 min 37° C.) [%] | Ki (CB1 receptor [3]; Table 2, read-out: CB1 Binding Ki) [nM] | EC50 (CB2 receptor [4]) [nM] | EC50 (CB2 receptor [5]; [8]) [nM] | CB2 fold selectivity (CB2 receptor [5]; Hit Hunter cAMP) | EC50 (CB1 receptor [6]; [9]) [nM] | Fold Selectivity (CB1/CB2) (CB2 receptor [1]; Table 3, ratio of Ki CB1/CB2) | Ki (CB2 receptor [1]; Table 3, read-out: Ki CB2) [nM] | Ki (CB1 receptor [3]; Table 3, read-out: Ki CB1) [nM] | Ki (CB2 receptor [1]) [nM] | EC50 (CB1 receptor [2]) [nM] | Ki (CB1 receptor [3]) [nM] | EC50 (CB2 receptor [5]) [nM] | EC50 (CB1 receptor [6]) [nM]
1 | CCCCCCC(C)(C)c1cc(O)c2c(c1)OC(C)(C)[C@@H]1CC=C(C(=O)NC3CCCCC3)C[C@@H]21 [Compound 16, (6aR,10aR)—N-Cyclohexyl-1-hydroxy-6,6-dimethyl-3-(2-methyloctan-2-yl)-6a,7,10,10a-tetrahydro-6H-benzo[c]chromene-9-carboxamide] | 57 | 4 | 26 | > 3000 | 84 | 94 | 5 | 2.7 | >1000 | > 3000 |  |  |  |  |  |  |  | 
2 | CCCCCCC(C)(C)c1cc(O)c2c(c1)OC(C)(C)[C@@H]1CC=C(C(=O)NOCCO)C[C@@H]21 [Compound 41] |  |  |  | 37.8 |  |  | 1.8 | 1.5 | 4.3 | 6.3 | 6.4 | 4.3 | 27.4 |  |  |  |  | 
3 | CCCCCCC(C)(C)c1cc(O)c2c(c1)OC(C)(C)[C@@H]1CC=C(C(=O)N[C@H]3C[C@H](O)C3)C[C@@H]21 [Compound 45, (6aR,10aR)-1-hydroxy-N-((1R,3R)-3-hydroxycyclobutyl)-6,6-dimethyl-3-(2-methyloctan-2-yl)-6a,7,10,10a-tetrahydro-6H-benzo[c]chromene-9-carboxamide] |  |  |  |  |  |  | 6 |  | 22.9 |  | 14.3 |  |  | 10.1 | 4980 | 144 | 12 | 274
4 | CCCCCCC(C)(C)c1cc(O)c2c(c1)OC(C)(C)[C@@H]1CC=C(C(=O)N[C@H]3C[C@@H](O)C3)C[C@@H]21 [Compound 46, (6aR,10aR)-1-hydroxy-N-((1 S,3S)-3-hydroxycyclobutyl)-6,6-dimethyl-3-(2-methyloctan-2-yl)-6a,7,10,10a-tetrahydro-6H-benzo[c]chromene-9-carboxamide] |  |  |  |  |  |  | 3.6 |  | 31.4 |  | 3.9 |  |  | 22.9 | 6000 | 90.3 | 8.4 | 263
5 | CCCCCCC(C)(C)c1cc(O)c2c(c1)OC(C)(C)[C@@H]1CC=C(C(=O)NN3CCCCC3)C[C@@H]21 [Compound 48, (6aR,10aR)-1-hydroxy-6,6-dimethyl-3-(2-methyloctan-2-yl)-N-(piperidin-1-yl)-6a,7,10,10a-tetrahydro-6H-benzo[c]chromene-9-carboxamide] |  |  |  |  |  |  | 4.4 |  | >428 |  | 25.3 |  |  | 9.2 | > 3000 | 233 | 7 | > 3000
6 | CC(C)(CCCCCCO)c1cc(O)c2c(c1)OC(C)(C)[C@@H]1CC=C(C(=O)O)C[C@@H]21 [Compound 57, (6aR,10aR)-1-hydroxy-3-(8-hydroxy-2-methyloctan-2-yl)-6,6-dimethyl-6a,7,10,10a-tetrahydro-6H-benzo[c]chromene-9-carboxylic acid] |  |  |  | 290 |  |  | 22 |  | 2.3 |  | 2.9 |  |  | 56.3 |  | 162 | 39.7 | 92.1
7 | CCCCCCC(C)(C)c1cc(O)c2c(c1)OC(C)(C)[C@@H]1CC=C(C(=O)NC(C)(C)C)C[C@@H]21 [Compound 95, (6aR,10aR)-N-(tert-butyl)-1-hydroxy-6,6-dimethyl-3-(2-methyloctan-2-yl)-6a,7,10,10a-tetrahydro-6H-benzo[c]chromene-9-carboxamide] |  |  |  |  |  |  | 1.3 |  | 11.0 |  | 9.7 |  |  | 3.2 | 23.9 | 31.1 | 1.2 | 13.2
8 | CCCCCCC(C)(C)c1cc(O)c2c(c1)OC(C)(C)[C@@H]1CC=C(C(=O)NO)C[C@@H]21 [Compound 105, (6aR,10aR)-N,1-dihydroxy-6,6-dimethyl-3-(2-methyloctan-2-yl)-6a,7,10,10a-tetrahydro-6H-benzo[c]chromene-9-carboxamide] |  |  |  |  |  |  | 3.7 |  | 1.0 |  | 0.4 |  |  | 24.1 | 75.6 | 9.2 | 11.2 | 11.4
9 | CCCCCCC(C)(C)c1cc(O)c2c(c1)OC(C)(C)[C@@H]1CC=C(C#N)C[C@@H]21 [Compound 112, (6aR,10aR)-1-hydroxy-6,6-dimethyl-3-(2-methyloctan-2-yl)-6a,7,10,10a-tetrahydro-6H-benzo[c]chromene-9-carbonitrile] |  |  |  | 2 |  |  | 1.4 |  |  |  | 1.4 |  |  | 0.7 |  | 1 |  | 
